Test results as given in US11982667B2, “Platelet aggregation capacity analyzer, analysis method, and analysis system using complex dielectric permittivity” (SONY CORPORATION, priority 2018, dated 2024).

Experiments:
[1] = single oral administration of 200 mg; cited from earlier work
[2] = system: platelets in whole blood (ADP pathway); assay: DBCM platelet assay (ADP pathway), activation residual rate AR3 by Method 3; type: cell-based, human; details: citrated whole blood of healthy volunteers spiked with ticagrelor; final blood concentration 400 nM and above; ADP 13 μM; DCS74 feature value
Procedure: In this experiment, the operating sequence of the dielectric coagulation analyzer experimental machine developed for dielectric blood coagulometry (also simply herein referred to as “DBCM”) was used with some modifications to realize a platelet assay.
When the measurement is started, 200 μL of citric acid-added blood sample is dispensed into a disposable cartridge into which a reagent(s) has been introduced in advance, and the mixture is mixed and stirred by automatic pipetting with a suction volume of about 200 μL. […]
Immediately after the completion of stirring, the dielectric permittivity measurement was started, and a change in the blood dielectric permittivity associated with blood coagulation was recorded at a measurement frequency of from 10 kHz to 10 MHz, a measurement time of 60 min, and a measurement time interval of 5 sec. […]
Meanwhile, in Methods 1 and 2, the response upper limit was obtained when the measurement was conducted without adding any agonist experimentally. […] In this regard, however, the ideal measured value should be obtained when 215 mM lyophilized calcium chloride reagent without any agonist is used and the number of stirring operations is changed to 5 times which is the minimum so as to prevent some of the platelets from being activated and reacted due to stirring-induced shear stress. […]

**Q.** For `CCCSc1nc(N[C@@H]2C[C@H]2c2ccc(F)c(F)c2)c2nnn([C@@H]3C[C@H](OCCO)[C@@H](O)[C@H]3O)c2n1` [ticagrelor], which maximum plasma concentration [1] is on record?
**A.** 923 ng/mL

**Q.** What about the “platelet activation residual rate AR3 (%)” value [2] of the same compound?
**A.** ≤ 30%
